Results published in patent publication US20020073447A1, “Acquired resistance genes and uses thereof” (priority 1996, published 2002).

Experiments:
BGL2-GUS reporter gene = assay: Quantitative GUS assay of BGL2-GUS reporter plants grown on SA or INA; format: in vivo, Arabidopsis thaliana; conditions: 0.5 mM SA, 0.1 mM INA
Method: The M2 seeds were germinated on MS medium with the addition of 0.8% agar, 0.5 mg/mL Mes (2-(N-morpholino)ethane-sulfonic acid), pH 5.7, 2% sucrose, 50 μg/mL kanamycin, and 100 μg/mL ampicillin. […] After incubation for fifteen days, each seedling to be assayed was numbered, and a single leaf was then removed from each seedling and put into the corresponding sample well of a ninety-six-well microtiter plate that contained 100 μL of […] (GUS) substrate solution (50 mM Na2HPO4, pH 7.0, 10 mM Na2EDTA, 0.1% Triton X-100, 0.1% sarkosyl, 0.7 μL/mL β-mercaptoethanol, and 0.7 mg/mL 4-methylumbelliferyl β-D-glucuronide). After all the samples were collected, the microtiter plate was placed under vacuum for two minutes to infiltrate the samples and then incubated at 37° C. overnight. Samples were examined for the fluorescent product of GUS activity (4-methylumbellifone) using a long-wavelength UV light. […] This procedure was repeated in the progeny of these putative mutants to ensure that the mutant phenotype was heritable and to identify the homozygous mutants.
To measure accurately the level of GUS activity, a quantitative GUS assay was performed on npr1-1 plants and the wild-type BGL2-GUS plants grown in the presence of either SA or INA, or in the absence of both. In the absence of an inducer, the background level of GUS activity was five-fold lower in the npr1-1 mutant than in the wild-type. […] Moreover, the induction by 0.1 mM INA was forty-eight-fold for the wild-type versus five-fold for npr1-1. Thus, while GUS activity in the SA- or INA-treated npr1-1 plants was somewhat induced, the activity was at most only slightly higher than the background level of the untreated wild-type.

[1] = test system: Pseudomonas syringae pv maculicola ES4326; assay: SA-/INA-induced protection against P.s. maculicola ES4326 infection (disease symptoms); format: in vivo; conditions: 1 mM SA or 0.65 mM INA two days before P.s. maculicola ES4326; for plants with chlorotic lesions: npr1-1 plants; for plants showing slight yellowing: wild-type plants
Method: To examine whether the lack of SA- or INA-induced PR gene expression would affect SAR protection against a virulent pathogen infection, fifteen-day-old wild-type and npr1-1 plants were treated with either 1 mM SA or 0.65 mM INA, and two days later were exposed to a P.s. maculicola ES4326 bacterial suspension. […] Chlorotic lesions developed in about ninety percent of the untreated wild-type control plants not pretreated with SA or INA. However, such SA- or INA-induced protection was not observed in npr1-1 mutant plants. Chlorotic lesions were clearly seen in over ninety-percent of untreated and at least eighty-percent of SA- or INA-treated plants. The symptoms on npr1-1 were also more severe than on the wild-type plants.

[2] = test system: Pseudomonas syringae pv maculicola ES4326; assay: Growth of P.s. maculicola ES4326 in SA-/INA-pretreated plants; format: in vivo; conditions: for growth of P.s. maculicola ES4326 lower than the untreated control / growth of P.s. maculicola ES4326: wild-type plants treated two days before infection; for growth of P.s. maculicola ES4326: 0 to 3.0 days after infiltration
PR1 gene = assay: RNA blot analysis of PR1 induction; format: in vivo, Arabidopsis thaliana; conditions: leaves in 0.5 mM INA for twenty-four hours, or SA
Method: Transformants of npr1-2 were grown (22° C. in fourteen hours of light) and selected on MS medium agar (Murashige and Skoog, Physiol Plant. 15:473-497, 1962) containing 2% sucrose, 50 μg/mL kanamycin, and 100 μg/mL ampicillin. Kanamycin-resistant transformants which developed true leaves and healthy roots were transplanted to soil. After two weeks of growth in soil at 22° C. in fourteen hours of light per day, leaves were collected from three transformants of each cosmid clone and soaked in 0.5 mM INA solution for twenty-four hours at 22° C. in fourteen hours of light per day. Leaf tissues were then collected and frozen in liquid nitrogen. Total RNA was extracted from these leaf tissues, and an RNA blot was prepared as described by Cao et al. (Plant Cell 6:1583-1592, 1994). The blot was probed with a PR1-specific probe (a PCR product obtained by amplifying genomic Arabidopsis DNA with PR1-specific primers (sense primer 5′ […]3′ (SEQ ID NO: 19); anti-sense primer 5′ […]3′ (SEQ ID NO: 20)).
These variations were likely to be the result of “position-effects,” the effect of the insertion site in the chromosome on the expression of the transgene. Cosmid clones 21A4-4-3-1, 21A4-6-1-1, 21A4-P5-1, and 21A4-2-1 restored the ability of the npr1-2 mutant to respond to INA induction and, therefore, complemented the npr1-2 mutation.
Transformants carrying each cosmid were also tested for SA induction of PR1 expression by RNA blot analysis Examples of SA induction are shown in FIG. 2A.

Arabidopsis thaliana = assay: Plant tolerance to SA or INA treatment (growth, symptoms); format: in vivo; conditions: wild-type and npr1-1 plants; 1 mM SA, 0.65 mM INA
NPR1-GFP = target: T1, NPR1-GFP (Arabidopsis thaliana, UniProt P93002); assay: Subcellular localization of NPR1-GFP by confocal microscopy; format: in vivo; conditions: 35S-NPR1-GFP eleven-day-old seedlings grown on MS with SA or INA
T1 construct: expressed in transfected cells; host or cells: Transgenic Arabidopsis npr1-1 and npr1-2 mutant plants (seedlings; leaf mesophyll and guard cells), CaMV 35S promoter
T1 sequence (P93002 1-593): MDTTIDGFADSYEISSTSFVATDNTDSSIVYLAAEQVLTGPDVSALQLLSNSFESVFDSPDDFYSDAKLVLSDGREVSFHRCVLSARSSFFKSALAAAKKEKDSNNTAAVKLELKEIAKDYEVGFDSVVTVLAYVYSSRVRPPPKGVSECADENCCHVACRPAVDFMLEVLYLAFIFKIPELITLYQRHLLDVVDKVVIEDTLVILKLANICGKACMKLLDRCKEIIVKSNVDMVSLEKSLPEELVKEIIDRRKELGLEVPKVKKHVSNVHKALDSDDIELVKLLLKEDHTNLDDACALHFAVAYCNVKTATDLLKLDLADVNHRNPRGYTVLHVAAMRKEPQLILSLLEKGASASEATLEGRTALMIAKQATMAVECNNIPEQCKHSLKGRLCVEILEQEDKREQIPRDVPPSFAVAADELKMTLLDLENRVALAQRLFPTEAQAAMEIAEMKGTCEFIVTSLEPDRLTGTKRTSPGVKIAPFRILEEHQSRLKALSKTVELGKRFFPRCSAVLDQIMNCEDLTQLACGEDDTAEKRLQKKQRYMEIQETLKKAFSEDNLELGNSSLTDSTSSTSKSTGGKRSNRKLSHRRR
Method: To elucidate the induction mechanism and the molecular function of the protein, the subcellular localization of NPR1 was determined by using standard reporter gene fusion construct analysis. The green fluorescent protein (GFP) gene was fused to the carboxyl end of the NPR1 cDNA driven by the constitutive CaMV 35S promoter, and the 35S-NPR1-GFP construct was used to transform npr1 mutants, npr1-1 and npr1-2, according to standard methods.
To examine the subcellular localization of the NPR1 protein, the 35S-NPR1-GFP and 35S-mGFP transgenic lines were grown in MS medium in the presence or absence of the SAR-inducing chemicals SA or INA. Eleven-day-old seedlings were subsequently examined using confocal microscopy to detect localization of NPR1-GFP and mGFP. […] In the 35S-mGFP transformants, green fluorescence was detected in the cytoplasm as well as in the nuclei, and SA and INA treatments had no effect on the localization of the protein. […] In the guard cells, the NPR1 protein was localized in the nuclei even without an SAR induction, an intriguing observation because constitutive activation of defense mechanisms in these cells may be necessary to fend off microbial pathogens from gaining entry into the plant through stomata. […] Consistent with this, the following two potential nuclear localization sequences (NLS's) were found in NPR1: […]

SMILES | increase in GUS activity compared to the uninduced plants (BGL2-GUS reporter gene; npr1-1 plants) | increase in GUS activity compared to the uninduced plants (BGL2-GUS reporter gene; wild-type BGL2-GUS plants) | plants with chlorotic lesions [1] | plants showing slight yellowing [1] | growth of P.s. maculicola ES4326 lower than the untreated control [2] | growth of P.s. maculicola ES4326 [2] | induction of PR1 gene expression (PR1 gene; npr1-2 mutant) | induction of PR1 gene expression (PR1 gene; wild-type parental line) | effect of treatment alone on plants (no infection) (Arabidopsis thaliana) | localization of NPR1-GFP upon induction (NPR1-GFP) | decrease in Psm ES4326 growth ([2]; npr1-2 mutant, 0.65 mM INA seventy-two hours prior to infection) | inhibition of Psm ES4326 growth ([2]; wild-type plants, 0.65 mM INA seventy-two hours prior to infection (OD600=0.001))
O=C(O)c1ccccc1O [SA, salicylic acid] | seven | fifty-two | at least eighty | less than ten | 1000 times | about ten | only a minor induction | high level of PR1 gene induction | minimal effect | exclusively in the nuclei of both the mesophyll cells and the guard cells | – | –
O=C(O)c1cc(Cl)nc(Cl)c1 [INA, 2,6-dichloroisonicotinic acid] | five | forty-eight | at least eighty | less than ten | 1000 times | about ten | no induction | induction | minimal effect | exclusively in the nuclei of both the mesophyll cells and the guard cells | ~10 fold | Complete inhibition
